Laboratory results published in US20120094384A1, “USE OF COMPOUNDS FOR DIFFERENTIATION OF CELLS” (priority 2009, published 2012).

Tested on: mouse embryonic stem cells (mESC's)
Assay: Mouse embryonic stem cell differentiation assessed by GeneChip array (Affymetrix GeneChip Mouse Exon 1.0ST)
Assay type: cell-based
Conditions: 0.5 μM, 96 hours, spontaneously differentiating mESC's
Description: Undifferentiated mouse embryonic stem cells (mESC's) were seeded at a density of 1.3×10^6 cells on 6 cm uncoated bacterial grade dishes. Spontaneous differentiation was initiated by removal of LIF from the new incubation medium, which consisted of 2% serum KO DMEM+/−AO-1-530 (0.5 μM). AO-1-530 is the same compound used in Examples 1 and 2. There were three treated and three control replicates.
Cells were incubated on a shaking platform at 37° C. for 24 hours at which time the plating media was removed and fresh medium, or AO-1-530 treated medium added as appropriate. This was repeated at 48 hours and 72 hours.
The partially-differentiated cells or embryoid bodies (EB's) were harvested at 96 hours, washed with PBS, re-suspended in Trizol and stored at −80° C. awaiting RNA extraction. The cells were subsequently thawed and RNA extracted using a standard Trizol isolation procedure with an additional clean-up performed using a Qiagen RNeasy Mini kit and DNase digestion as per the manufacturer's instructions. cRNA was prepared from the tRNA, then hybridised to the Affymetrix GeneChip Mouse Exon 1.0ST array, washed, stained then scanned.
P-value cut-off: 0.05 P-value computation: Asymptotic Multiple testing correction: Benjamini-Hochberg

CCCCCCCCCCc1ccc2c(=O)c(O)c(-c3cc(O)c(O)c(O)c3)oc2c1 [AO1530]
Neurod1 and Fgf4 genes relative to the control cells: increase | remaining 6 genes (Fgf10, Bry, Podxl, Map4k1, Pak1, Eomes) relative to the control cells: decreased | number of genes with significantly altered (P<0.05) expression compared with the controls (T-test, Benjamini-Hochberg): 315 genes | [Drug] (normalized) Pak1 ([Control] (normalized) 0.17034023): −0.2141 | [Drug] (normalized) Bry ([Control] (normalized) 0.32084307): −0.4595 | [Drug] (normalized) Podxl ([Control] (normalized) 0.32956442): −0.3278 | [Drug] (normalized) Eomes ([Control] (normalized) 0.44043383): −0.5036 | [Drug] (normalized) Fgf10 ([Control] (normalized) 0.50325745): −0.5713 | [Drug] (normalized) Map4k1 ([Control] (normalized) −0.1732769): 0.1637 | [Drug] (normalized) Neurod1 ([Control] (normalized) −0.46519312): 0.4739 | [Drug] (normalized) Fgf4 ([Control] (normalized) −0.48913416): 0.3787 | [Drug](raw) Fgf10 ([Control](raw) 394.5062): 187.7 | [Drug](raw) Neurod1 ([Control](raw) 420.62076): 806 | [Drug](raw) Map4k1 ([Control](raw) 814.98): 1029.3136 | [Drug](raw) Eomes ([Control](raw) 2057.381): 1071.638 | [Drug](raw) Fgf4 ([Control](raw) 2079.3152): 3787.6875 | [Drug](raw) Pak1 ([Control](raw) 2240.5337): 1717.2704 | [Drug](raw) Podxl ([Control](raw) 3411.1348): 2162.7986 | [Drug](raw) Bry ([Control](raw) 8229.497): 4804.9707
